We go through 9 molecules from publication PMC9699072 (Molecules, 2022).

Structures are written as SMILES. Where “and” joins values, the source holds several entries; their conditions need not be identical. Equal values may be shown once.

Common to all, as to assay type: biochemical
One assay has as its target T1, human erythrocyte AChE (Homo sapiens, UniProt P22303).
T1 construct: Human erythrocyte acetylcholinesterase (AChE, EC 3.1.1.7); purchased Sigma-Aldrich (Saint Louis, MO, USA); host or cells: human erythrocytes
The assay can be described thus: Inhibition of AChE (Ellman's colorimetric assay). The settings on record: read-out: AChE % inhibition at 20 μM. From the text:
(§1) Given the available literature data on the ability of pyrazole derivatives to inhibit acetylcholinesterase (AChE) and human carboxylesterase-1 (CES), we performed an investigation of the esterase profile for new compounds 1a–j and 4a–j, including an evaluation of their inhibitory effect on the standard enzymes set: human erythrocyte AChE, equine serum butyrylcholinesterase (BChE), and porcine liver CES (Table 2). The applicability of this set of enzymes was shown by us earlier.
(§2) Human erythrocyte acetylcholinesterase (AChE, EC 3.1.1.7), equine serum butyrylcholinesterase (BChE, EC 3.1.1.8), porcine liver carboxylesterase (CES, EC 3.1.1.1), acetylthiocholine iodide (ATCh), butyrylthiocholine iodide (BTCh), 4-nitrophenol acetate (4-NPA), and 5,5′-dithio-bis-(2-nitrobenzoic acid) (DTNB) were purchased from Sigma-Aldrich (Saint Louis, MO, USA).
(§3) All the kinetic experiments were performed under standard conditions, according to the protocol of IPAC RAS for a reversible inhibitors study.
(§4) Ellman’s colorimetric assay was used to measure AChE and BChE activity in 0.1 M K/Na phosphate buffer at pH 7.5, 25 °C [86]. Final concentrations of reactants were 0.33 mM DTNB, 0.02 unit/mL of AChE or BChE, and 1 mM of substrate (ATCh or BTCh, respectively). Reagent blanks consisted of reaction mixtures without enzyme to assess non-enzymatic hydrolysis of substrates. Porcine liver CES activity was assessed colorimetrically in 0.1 M K/Na phosphate buffer with pH 8.0 at 25 °C, by measuring the absorbance of 4-nitrophenol at 405 nm. Final enzyme and substrate (4-NPA) concentrations were 0.02 unit/mL and 1 mM, respectively. Reagent blanks included all constituents except enzyme.
(§5) Test compounds were dissolved in DMSO. Reaction mixtures contained a final DMSO concentration of 2% (v/v). Enzyme inhibition was first assessed at a single concentration of 20 µM for each compound after a 10 min incubation at 25 °C in three separate experiments. Compounds inhibiting the enzyme by more than 30% were then selected for determination of the IC50 (inhibitor concentration resulting in 50% inhibition of control enzyme activity). […] Substrate was then added, and residual enzyme activity relative to an inhibitor-free control was measured using a FLUOStar Optima microplate reader (LabTech, Ortenberg, Germany).
(Ellman's reagent forms a yellow product with free thiols.)

In a further assay the test system is porcine liver CES. The assay can be described thus: Inhibition of CES (4-nitrophenol acetate hydrolysis). Particulars: 20 μM, ± SEM, n = 3, 10 min incubation 25 °C.
Description: as §1, §2, §3, §4, §5

Assay [1] can be described thus: ABTS radical cation scavenging (decolorization) assay. The settings on record: mean ± SEM, n = 3; for ABTS TEAC (Trolox equivalent antioxidant capacity): 1 h incubation, relative to Trolox; for IC50: 1 h, read-out: ABTS IC50 (compound concentration required for 50% reduction of the ABTS radical-cation) (converted). As for the experimental part:
The ABTS assay is based on the direct quenching of the ABTS cation radical (ABTS^•+) by antioxidants. The assay is carried out by spectrophotometric determination of a decrease in absorbance of a stable dark green ABTS^•+ solution after its interaction with an antioxidant compound [56]. The measurements were performed as previously described in detail. The results are expressed as TEAC values (Trolox equivalent antioxidant capacity) and IC50 values (compound concentration required for 50% reduction of the ABTS radical).
Radical scavenging activity of the compounds was assessed using the ABTS radical cation (ABTS^•+) decolorization assay with some modifications. ABTS (2,2′-azinobis-(3-ethylbenzothiazoline-6-sulfonic acid)) was purchased from Tokyo Chemical Industry Co., Ltd. (Tokyo, Japan), and potassium persulfate (dipotassium peroxodisulfate), Trolox (6-hydroxy-2,5,7,8-tetramethylchroman-2-carboxylic acid), and HPLC-grade ethanol and DMSO were obtained from Sigma-Aldrich (Saint Louis, MO, USA). Aqueous solutions were prepared using deionized water. All test compounds were dissolved in DMSO.
The solution of cation radical ABTS^•+ was produced by incubation of an aqueous solution of 7 mM ABTS and 2.45 mM potassium persulfate solution in equal quantities for 12–16 h at room temperature in the dark. Radical scavenging capacity of the compounds was analyzed by mixing 10 μL of compound with 240 μL of ABTS^•+ working solution in ethanol (100 μM final concentration). Data were given for 1 h of incubation of compounds with ABTS^•+. The reduction in absorbance was measured spectrophotometrically at 734 nm using an xMark microplate UV/VIS microplate spectrophotometer (Bio-Rad, Hercules, CA, USA).
Ethanol blanks were run in each assay. Values were obtained from three replicates of each sample and three independent experiments.
Standard antioxidant Trolox was used as a reference compound. Antioxidant capacity as Trolox equivalent (TEAC) values was determined as the ratio between the slopes obtained from the linear correlation of the ABTS radical absorbance with the concentrations of tested compounds and Trolox. Quercetin was used as a positive control. For the test compounds that reduced ABTS^•+ absorbance by more than 60% at 100 µM, we also determined the IC50 values (the compound concentration required for a 50% reduction of the ABTS radical). The compounds were tested in the concentration range of 0.5–400 µM.

The target in assay [2] is T2, equine serum butyrylcholinesterase (BChE) (Equus caballus, UniProt P81908).
T2 construct: equine serum butyrylcholinesterase (BChE, EC 3.1.1.8); purchased Sigma-Aldrich (Saint Louis, MO, USA); host or cells: equine serum
T2 sequence (P81908 whole entry): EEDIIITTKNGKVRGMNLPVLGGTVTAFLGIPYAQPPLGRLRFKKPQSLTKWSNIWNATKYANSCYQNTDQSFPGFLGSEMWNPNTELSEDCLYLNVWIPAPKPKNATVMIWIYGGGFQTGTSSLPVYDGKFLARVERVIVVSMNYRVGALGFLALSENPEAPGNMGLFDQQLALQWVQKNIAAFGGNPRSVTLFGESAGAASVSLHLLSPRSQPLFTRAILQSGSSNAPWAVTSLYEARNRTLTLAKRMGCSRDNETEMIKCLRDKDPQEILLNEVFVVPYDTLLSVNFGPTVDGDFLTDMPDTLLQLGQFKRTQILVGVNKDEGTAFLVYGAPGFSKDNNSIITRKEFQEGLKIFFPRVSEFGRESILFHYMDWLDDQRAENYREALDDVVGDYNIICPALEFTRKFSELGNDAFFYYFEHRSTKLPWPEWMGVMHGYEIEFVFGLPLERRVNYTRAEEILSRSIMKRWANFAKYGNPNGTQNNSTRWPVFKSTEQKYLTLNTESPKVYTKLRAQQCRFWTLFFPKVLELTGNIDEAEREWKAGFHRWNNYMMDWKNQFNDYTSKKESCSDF
The assay can be described thus: Inhibition of BChE (Ellman's colorimetric assay). Particulars: ± SEM, n = 3, 10 min incubation 25 °C.
Description: as §1, §2, §3, §4, §5

Assay [3] is described as follows: ORAC-FL (oxygen radical absorbance capacity) assay. The settings on record: mean ± SEM, n = 3; 2 h; 10 μM compound and Trolox. An excerpt: In the oxygen radical absorbance capacity (ORAC-FL) assay, 2,2′-azobis-(2-methylpropionamidine) dihydrochloride (AAPH) is used as a free peroxyl radical generator, and fluorescein (FL) is used as a fluorescent probe. The method is based on measuring the decrease in the intensity of fluorescence with time, which characterizes the degree of decay of the fluorescent probe under the influence of peroxyl radicals. In the presence of antioxidants, the degree of decay of the fluorescent probe decreases and, accordingly, the fluorescence intensity increases. The results are expressed as TE (Trolox equivalents).
The ORAC assay utilizes a biologically relevant radical source, 2,2′-azobis(2-amidinopropane) dihydrochloride (AAPH)-derived peroxyl radicals. Thus, it is a more physiologically relevant assay than ABTS and FRAP.
The oxygen radical absorbance capacity (ORAC) was determined by the ability of compounds to protect fluorescein (FL) from peroxyl radicals that are generated by AAPH according to the known method with minor variations. The reaction was carried out at 37 °C in black 96-well plates (SPL life sciences), and the final volume of the reaction mixture was 200 µL per well. The fluorescence was recorded by Tecan M1000 PRO microplate reader (Switzerland) at 485 nm excitation and 520 nm emission.
The 0.7 mM fluorescein sodium salt stock solution in PBS pH 7.4 (137 mM sodium chloride, 2.7 mM potassium chloride, and 10 mM phosphate buffer) was prepared and stored at 4–5 °C no longer than one month. An aliquot of the fluorescein stock solution was further diluted with PBS immediately before each assay to yield a 70 nM working solution. The 133 mM AAPH solution in PBS was prepared immediately before use. The test compounds and Trolox standard were dissolved in DMSO to 400 μM. The final concentration was 10 μM for all of the samples.
The blank was composed of 15 μL PBS pH 7.4, 5 μL DMSO (final concentration: 2.5% (v/v)), 120 μL FL, and 60 μL AAPH, and it was included in each assay. PBS pH 7.4 (15 μL), antioxidant (the test compound or Trolox, 5 μL), and FL (120 μL, final concentration: 42 nM) solutions were placed in a black 96-well microplate and were pre-incubated for 15 min at 37 °C. AAPH solution (60 μL, final concentration 40 mM) was then added rapidly using a multichannel pipette. The fluorescence was recorded every minute for 2 h. A Trolox standard curve was also obtained in each assay. All reactions were carried out in quadruplicate, and two to four independent assays were performed for each sample.
Antioxidant curves (fluorescence vs. time) were first normalized to the curve of the blank (without antioxidant) corresponding to the same assay, and the net AUC corresponding to a sample was calculated by subtracting the AUC corresponding to the blank. The ORAC value was obtained by dividing the latter curve by the Trolox curve obtained in the same assay at 10 μM concentrations of compounds and Trolox. Final ORAC values, Trolox equivalents (TE), were expressed as μmol test compounds per μmol Trolox, where the value of TE for Trolox was taken as 1. Data were expressed as means ± SEM.

Assay [4] can be described thus: FRAP (ferric reducing antioxidant power) assay. Particulars: mean ± SEM, n = 3; 1 h, 37 °C, pH 3.6. As for the experimental part:
The FRAP (ferric reducing antioxidant power) assay measures the ability of antioxidants to reduce the ferric 2,4,6-tripyridyl-s-triazine complex [Fe(TPTZ)2]^3+ to the intensely blue ferrous complex [Fe(TPTZ)2]^2+ in an acidic medium. The measurements were performed as previously described in detail. The results are expressed as TE (Trolox equivalents).
The FRAP (ferric reducing antioxidant power) assay measures the ability of antioxidants to reduce the ferric 2,4,6-tripyridyl-s-triazine complex [Fe (TPTZ)2]^3+ to the intensely blue ferrous complex [Fe (TPTZ)2]^2+ (λ = 593 nm) in acidic medium. 2,4,6-Tris(pyridin-2-yl)-1,3,5-triazine (TPTZ), FeCl3·6H2O, Trolox, quercetin and DMSO were obtained from Sigma-Aldrich Chemical Co. (St. Louis, MO, USA). The FRAP reagent contained 2.5 mL of 10 mM TPTZ solution in 40 mM HCl, 2.5 mL of 20 mM FeCl3·6H2O water solution, and 25 mL of 0.3 M acetate buffer (pH 3.6). Aliquots of 10 µL of the test compound solution in DMSO (0.5 mM) were mixed with 240 µL of FRAP reagent, and the absorbance of the mixture was measured spectrophotometrically (FLUOStar OPTIMA microplate spectrophotometer (BMG Labtech, Ortenberg, Germany)) at 600 nm after 1 h incubation at 37 °C against a blank. Trolox was used as a reference compound. Quercetin was used as a positive control. A calibration curve with linear formula y = 0.03x (R^2 = 0.998, p < 0.0001) was prepared for Trolox solutions in DMSO at a range of 2.5–100 µM, and the results are expressed as Trolox equivalents (TE), the values calculated as the ratio of the concentrations of Trolox and the test compound, resulting in the same effect.

T1 sequence (P22303 32-617 isoform P22303-2 limits assumed): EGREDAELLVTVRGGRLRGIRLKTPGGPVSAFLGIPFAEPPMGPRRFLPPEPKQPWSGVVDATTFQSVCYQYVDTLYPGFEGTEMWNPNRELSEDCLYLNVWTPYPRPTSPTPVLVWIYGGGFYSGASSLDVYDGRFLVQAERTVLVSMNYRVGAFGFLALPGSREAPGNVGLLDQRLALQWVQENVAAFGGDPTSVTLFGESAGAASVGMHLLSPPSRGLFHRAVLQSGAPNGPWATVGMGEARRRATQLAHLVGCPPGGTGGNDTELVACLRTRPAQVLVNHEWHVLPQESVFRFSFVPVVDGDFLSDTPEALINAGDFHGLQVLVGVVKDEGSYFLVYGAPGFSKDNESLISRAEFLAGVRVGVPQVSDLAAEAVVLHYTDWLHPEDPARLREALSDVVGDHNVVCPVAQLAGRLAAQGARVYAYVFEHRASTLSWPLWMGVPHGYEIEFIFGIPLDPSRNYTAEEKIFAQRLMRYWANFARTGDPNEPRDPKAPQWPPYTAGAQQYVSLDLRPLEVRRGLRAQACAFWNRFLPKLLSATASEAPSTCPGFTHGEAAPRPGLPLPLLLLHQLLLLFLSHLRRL

Take `O=C1NN=C(C(F)(F)C(F)F)/C1=N/O` [1f]: the inhibition at 20 µM was 6.8 ± 1.2% on human erythrocyte AChE and 4.7 ± 1% in assay [2]. Moreover, the “CES % inhibition at 20 μM” value in the assay with porcine liver CES is 3.5 ± 0.9%. Further, in assay [1], the “ABTS TEAC (Trolox equivalent antioxidant capacity)” value (shortened to “ABTS TEAC”) is on record as 0.15 ± 0.007 (n.d.) TEAC.
Regarding `O=C1NN=C(C(F)(F)C(F)(F)C(F)(F)C(F)(F)F)/C1=N/O` [1i], the “ABTS TEAC” value in assay [1] is listed as 0.2 ± 0.01 (n.d.) TEAC. Besides, in assay [3], the “ORAC-FL TE (Trolox equivalent)” value amounted to 2.41 ± 0.08 TE.
`O=C1/C(=N\O)C(C(F)(F)C(F)(F)F)=NN1c1ccccc1` [1b]: the figures for the inhibition at 20 µM (on human erythrocyte AChE; in assay [2]) were 11.9 ± 0.9% and 16.1 ± 1.4%, respectively. Also, the “FRAP TE (Trolox equivalent)” value in assay [4] worked out at 0.06 ± 0.01 TE. Moreover, the “CES % inhibition at 20 μM” value with porcine liver CES is reported as 8.2 ± 1.3%. Besides, the “ABTS TEAC” value in assay [1] is on record as 0.03 ± 0.002 (n.d.) TEAC.
On to `CC1=NN(c2ccccc2)C(=O)/C1=N\O` [1d], for which the inhibition at 20 µM at human erythrocyte AChE came to 4.9 ± 1.3%; in assay [2], 6.6 ± 1.3%. Moreover, the “ABTS TEAC” value in assay [1] is on record as 0.16 ± 0.02 (n.d.) TEAC. The “ORAC-FL TE (Trolox equivalent)” value in assay [3] is 1.07 TE and 1.07 ± 0.17 TE.
For `O=C1NN=C(C(F)(F)C(F)(F)C(F)(F)F)/C1=N/O` [1h], the inhibition at 20 µM at human erythrocyte AChE came to 5.3 ± 1.3%. Further, in the assay on porcine liver CES, the “CES % inhibition at 20 μM” value is reported as 6.6 ± 1.4%. Further, the “ABTS TEAC” value in assay [1] is listed as 0.19 ± 0.008 (n.d.) TEAC. Moreover, the “ORAC-FL TE (Trolox equivalent)” value in assay [3] came out at 2.37 ± 0.09 TE.
As for `O=C1/C(=N\O)C(C(F)(F)F)=NN1c1ccccc1` [1a], the “ABTS TEAC” value in assay [1] is 0.035 ± 0.002 (n.d.) TEAC.
Turning to `Cl.Nc1c(C(F)(F)C(F)F)n[nH]c1O.O` [4f, 4-Amino-3-(1,1,2,2-tetrafluoroethyl)-1H-pyrazol-5-ol hydrate hydrochloride], the inhibition at 20 µM at human erythrocyte AChE stood at 17.3 ± 1.5%. Besides, the “FRAP TE (Trolox equivalent)” value in assay [4] is 0.62 ± 0.01 TE. Further, the “CES % inhibition at 20 μM” value in the assay on porcine liver CES was 17.5 ± 1.4%. Further, in assay [1], the IC50 was 33.2 µM and the “ABTS TEAC” value was found to be 0.50 ± 0.02 TEAC.
With `O=c1c(O)c(-c2ccc(O)c(O)c2)oc2cc(O)cc(O)c12` [Quercetin, reference compound], the “FRAP TE (Trolox equivalent)” value in assay [4] stood at 4.99 ± 0.02 TE. In assay [1], the IC50 was 13.8 µM and the “ABTS TEAC” value was 1.20 ± 0.11 TEAC. Also, the “ORAC-FL TE (Trolox equivalent)” value in assay [3] is listed as 5.41 ± 0.08 TE.
For `O=C1/C(=N\O)C(C(F)(F)C(F)(F)C(F)(F)C(F)(F)F)=NN1c1ccccc1` [1c], the inhibition at 20 µM on human erythrocyte AChE is 11.5 ± 1.8%; in assay [2], 5.3 ± 1%. For the same molecule, the “FRAP TE (Trolox equivalent)” value in assay [4] was 0.06 ± 0.01 TE. The “CES % inhibition at 20 μM” value in the assay with porcine liver CES was 7.8 ± 1.4%. Further, the “ABTS TEAC” value in assay [1] is listed as 0.04 ± 0.004 (n.d.) TEAC.

In general, inhibition refers to the share of the control response that was lost under treatment.
